Results: patent US12691179B2, “Somatostatin receptor-based cancer therapy” (Vikas Kundra, priority 2010, dated 2026)
Entries after “also recorded” stand apart in the source; their conditions may differ. Where two headings read alike, the source gives them in different places.

Assays:
[1] = system: HT1080 cells (fibrosarcoma cells that do not endogenously express SSTR2); assay: MTT cell growth assay of HT1080 cells transfected with HA-SSTR2 wild-type or C-terminal deletions; type: cell-based; conditions: 5% FBS, with or without 100 nM sandostatin, three days
Method: Three days later, MTT assay was used to determine cell number.
In the following experiments, HA-tagged receptors were used.
(§1) Two days after transient transfection with HA-SSTR2D351 or HA-SSTR2D340, 3000 HT1080 cells were grown in the presence of 5% FBS with or without 100 nM of the somatostatin analogue sandostatin. Three days later, MTT assay was used to determine cell number.

[2] = system: HT1080 tumors expressing HA-SSTR2 wild-type, HA-D314 or vector
Method: (§2) Stably transfected HT1080 cells were implanted subcutaneously in nude mice (three tumors, HA-wt, HA-D314, vector, per animal). When tumors were palpable, daily injections of the somatostatin analogue sandostatin were initiated and tumors were measured by calipers every two days.
(§3) Stably transfected HT1080 cells were implanted subcutaneously in nude mice (three tumors, HA-wt, HA-D314, vector, per animal).
(§4) Stably transfected HT1080 cells were implanted subcutaneously in nude mice (three tumors, HA-wt, HA-D314, vector, per animal). When tumors were palpable, 90Y-octreotate was given once at a dose of 1 mCi (FIG. 7A) or twice at doses of 2 mCi and 1 mCi (FIG. 7B).
as §2, §3, §4

HeyA8 tumors = assay: Growth of HeyA8 tumors injected with adenovirus expressing HA-SSTR2delta340; type: in vivo; conditions: HeyA8 tumors in nude mice, intratumoral adenovirus
Method: FIG. 12. Constitutively active SSTR2delta340 inhibits the growth of tumor cells. Nude mice were Injected subcutaneously with HeyA8 tumors cells and then each tumor was injected with adenovirus expressing HA-SSTR2delta340 or control inserts (8 tumors per group). Tumor size was measured by calipers. *p<0.05, tumors injected with adv-HA-SSTR2delta340 and given saline vs tumors injected with adv-GFP and given saline; for clarity only the comparison of these two groups is illustrated with *.
as §1

[3] = system: untransfected HT1080 cells admixed with HS5 cells; assay: Bystander cell death, live/dead staining of HS5 mesenchymal stem cells admixed with untransfected HT1080 cells; type: cell-based, human; conditions: HS5 stably expressing wild-type or signaling deficient HA-SSTR2 admixed with untransfected HT1080, 24 hours
Method: FIG. 4: Exposure to 90Y-DOTA-octreotate (DOTATATE) results in bystander cell death of tumor cells. Human mesenchymal stem cells (HS5) stably expressing wild-type or signaling deficient HA-SSTR2 receptors or transfected with vector were admixed with untransfected HT1080 cells and then exposed to 90Y-DOTATATE for 24 hours. Then, live (green)/dead (red) staining was performed.
Mixing mesenchymal stem cells expressing SSTR2 or the signaling deficient mutant delta 314 with untransfected tumor cells results in kill of rosettes of clusters of cells that are not seen if mesenchymal stem cells transfected with vector are used (FIG. 4), consistent with bystander killing. Human mesenchymal stem cells (HS5) stably expressing wild-type or signaling deficient HA-SSTR2 receptors or transfected with vector were admixed with untransfected HT1080 cells and then exposed to 90Y-DOTATATE for 24 hours.

[4] = system: HT1080 cells expressing wild-type or signaling deficient HA-SSTR2 receptors, or vector transfected; assay: Cell death by trypan blue uptake in stably transfected HT1080 cells; type: cell-based
Method: Stably transfected HT1080 cells were exposed to different amounts of ^90Y-DOTATATE for 1 hour and 72 hours.

[5] = system: Mouse ES cell-derived tumors expressing HA-SSTR2 or HA-SSTR2delta314; assay: Growth of embryonic stem cell-derived teratomas measured by calipers; type: in vivo, nude mice; conditions: tumors derived from wild type ES cells, i.v. twice
Method: Mouse ES cells (these are pluripotent stem cells that can be used to create transgenic mice and like most ES cells result in teratomas when injected in nude mice) were transfected with a plasmid containing HA-SSTR2 or HA-SSTR2delta314. Clones were then selected for expression. The cells were then injected into nude mice subcutaneously and tumor size was measured by calipers. After tumors were present in three locations per mouse in all 8 mice, the animals were injected i.v. with 90-Y labeled octreotate two days and 5 days later.
After tumors were present in three locations per mouse in all 8 mice, the animals were injected i.v. with 90-Y labeled octreotate two days and 5 days later as on the chart. Tumor size was measured by calipers. Unlike many stem cells, embryonic stem cells (ES) more commonly form teratomas. Inhibition of growth of established teratomas was assessed.

[6] = system: Human ovarian cancer (Hey A8) tumors to which HS5 cells homed; assay: Growth of Hey A8 tumors after systemic (intracardiac) injection of HS5 cells expressing or not expressing HA-SSTR2D314; type: in vivo, nude mice; conditions: HeyA8 tumors, intravenous
Method: FIG. 9: Stem cells expressing the signaling deficient mutant SSTR2D314 home to and incorporate into tumor and can be targeted with a therapeutic for inhibiting tumor growth.
Stem cells expressing the signaling deficient mutant SSTR2D314 home to and incorporate into tumor and can be targeted with a therapeutic for inhibiting tumor growth (FIG. 9). […] Human ovarian cancer (Hey A8) cells on one side and vehicle on the other side were injected subcutaneously in nude. Two days later, human mesenchymal stem cells (HS5 cells) expressing or not expressing HA-SSTR2D314 were injected systemically (intracardiac). […] Tumors were seen on the side injected with HeyA8 cells. Once tumors were established, 90Y-octreotate was delivered intravenously. Tumors were measured by calipers every two days. Tumors to which HS5 cells expressing the HA-SSTR2D314 mutant homed and incorporated were growth inhibited compared to control (*p<0.05, HeyA8+HS5-SSTR2D314 vs HeyA8+HS5vector). The incorporated stem cells not the tumor cells serve as a target for the therapeutic.

[7] = system: Human ovarian cancer (Hey A8) tumors incorporating HS5 cells; assay: Growth of Hey A8 tumors co-injected with HS5 cells expressing or not expressing HA-SSTR2D314; type: in vivo, nude mice; conditions: intravenous
From the text: FIG. 8: Stem cells expressing the signaling deficient mutant SSTR2D314 incorporate into tumor and can be targeted with a therapeutic for Inhibiting tumor growth.
Stem cells expressing the signaling deficient mutant SSTR2D314 incorporated into tumor and can be targeted with a therapeutic for inhibiting tumor growth (FIG. 8). […] Human ovarian cancer (Hey A8) cells were co-injected subcutaneously in nude mice with HS5 cells expressing or not expressing HA-SSTR2D314. […] Once tumors were established, 90Y-octreotate was delivered intravenously. Tumors were measured by calipers every two days. Tumors incorporating HS5 cells expressing the HA-SSTR2D314 mutant were growth inhibited compared to control (*p<0.05, HeyA8+HS5-SSTR2D314 vs HeyA8+HS5vector). The incorporated stem cells, but not the tumor cells, serve as a target for the therapeutic.

[8] = stably transfected HT1080 cells

HA-SSTR2D314: signaling deficient human SSTR2 truncated carboxy terminal to amino acid 314 (amino acids 1-314 of SEQ ID NO:6), HA-tagged
cell growth (cell number by MTT assay) [1, 8]: does not inhibit cellular growth upon ligand stimulation

octreotide
tumor growth (calipers) ([2]; tumors expressing signaling deficient receptor (HA-D314), daily injections): no decrease in tumor size was seen | tumor growth (calipers) ([2]; tumors expressing wild-type receptor, daily injections): inhibited growth of tumors expressing wild-type receptor | tumor growth (calipers) ([2]; tumors from vector transfected cells, daily injections): not the signaling deficient receptor or tumors derived from vector transfected cells

HA-SSTR2D340: constitutively active human SSTR2 mutant, C-terminal amino acids after position 340 deleted (amino acids 1-340 of SEQ ID NO:6), HA-tagged
tumor growth (size by calipers) (HeyA8 tumors): inhibits the growth of tumor cells in vivo | cell growth (cell number by MTT assay) [1, 8]: inhibits growth even without ligand stimulation | cell growth (cell number by MTT assay) ([1]; transiently transfected HT1080 cells): inhibit growth even without ligand stimulation

wild-type SSTR2: HA-tagged wild-type (full length) human somatostatin receptor type 2
cell growth (cell number by MTT assay) [1, 8]: require ligand stimulation to inhibit growth

[^90Y-DOTA]-octreotate [90Y-DOTATATE]
bystander cell death (live/dead staining) [3]: Rosettes (clusters) of dead cells were seen | cell death (trypan blue uptake) ([4]; HT1080 cells expressing signaling deficient HA-SSTR2, exposure 1 hour and 72 hours): Dose dependent and time dependent killing was observed | cell death (trypan blue uptake) ([4]; HT1080 cells expressing wild-type HA-SSTR2, exposure 1 hour and 72 hours): Dose dependent and time dependent killing was observed | tumor growth (calipers) ([2]; tumors expressing signaling deficient receptor (HA-D314), once 1 mCi or twice 2 mCi and 1 mCi, listed as 90Y-octreotate): inhibited growth of tumors expressing wild-type or signaling deficient receptors; also recorded: decreased in size in a dose dependent manner | tumor growth (calipers) ([2]; tumors expressing wild-type receptor, once 1 mCi or twice 2 mCi and 1 mCi): inhibited growth of tumors expressing wild-type or signaling deficient receptors | tumor growth (calipers) ([2]; tumors from vector transfected cells, once 1 mCi or twice 2 mCi and 1 mCi): not tumors derived from vector transfected cells | teratoma growth (calipers) [5]: not tumors derived from wild type ES cells | tumor growth (calipers) ([6]; HS5 expressing HA-SSTR2D314 injected intracardiac): inhibited growth of human tumors to which human mesenchymal stem cells expressing HA-SSTR2D314 homed and incorporated | tumor growth (calipers) ([6]; control HS5 injected intracardiac): not control HS5 cells | tumor growth (calipers) ([7]; HeyA8+HS5-SSTR2D314 co-injected subcutaneously): inhibited growth of human tumors incorporating HS5 human mesenchymal stem cells expressing SSTR2D314 | tumor growth (calipers) ([7]; HeyA8+control HS5 (vector) co-injected subcutaneously): not control HS5 cells
